Data reported in US20260207753A1, “PROTAC DEGRADATION OF FACTORS PAX3 AND FOXO1” (THE RESEARCH INSTITUTE AT NATIONWIDE CHILDREN'S HOSPITAL, priority 2022, published 2026).
“Also recorded” adds a separate entry of the source.

Experiments:
SMARCA4 and SMARCA2 = test: Western blot of soluble nuclear extracts: ATPase (SMARCA4/SMARCA2) degradation in RH4 / rhabdomyosarcoma cells; assay type: cell-based, human; settings: for PROTAC exposure time until ATPase depletion is observed: 125 nM SMARCA4-31 or 250 nM DL-dS2-4, FIG. 6B; for dose required for maximal ATPase depletion: FIG. 6A; for loss of ATPases SMARCA4/SMARCA2: rhabdomyosarcoma cells, 1 μM, 24-hour treatment, western blot
Method: (§1) The inventors investigated the effect of a number of PROTAC inhibitors on fusion-positive and negative RMS cell models. The experiment was designed as follows. Fusion-positive RMS (RH4 and RH30) and fusion-negative RMS (RD and CTR) cells were treated with DMSO or 1 μM dBRD9, DL-ds2-4, or SMARCA4-31 for 24 hours. Soluble nuclear extracts were prepared to assess target degradation as well as abundance of additional SWI/SNF complex subunits and the transcription factor FOXO1 (wild-type and PAX3-FOXO1 fusion).
(§2) The inventors also investigated whether the effect of the compounds was reversible. Fusion-positive RMS RH4 cells were treated for 24 hours with DMSO including […] dBRD9, DL-ds2-4, or SMARCA4-31. After the treatment period cells were collected or washed extensively to remove the compound and incubated in untreated growth media for an additional 24-hour period. Soluble nuclear extracts were prepared to assess target degradation and recovery.
(§3) In FIG. 6A, RH4 cells were treated for 24 hours with the indicated dose of SMARCA4-31 (labeled S4-31) or DL-dS2-4 (labeled S2-4).
(§4) In FIG. 6B, RH4 cells were treated with 125 nM SMARCA4-31 (labeled S4-31) or 250 nM DL-dS2-4 (labeled S2-4) for the indicated time.

PAX3-FOXO1 fusion = test: Western blot of soluble nuclear extracts: PAX3-FOXO1 fusion loss in RH4 cells; assay type: cell-based, human; settings: 24 hours; for loss of the PAX3-FOXO1 fusion: 1 μM; for PROTAC concentration at which PAX3-FOXO1 is fully depleted: FIG. 6A
Method: as §1, §2, §3, §4

FOXO1 = biological target: T1, FOXO1 (Homo sapiens, UniProt Q12778); test: Western blot of soluble nuclear extracts: wild-type FOXO1 loss in CTR cells; assay type: cell-based; settings: 1 μM, 24 hours
T1 construct: In CTR cells, which only express the wild-type FOXO1; endogenous in cells; host or cells: CTR (SMS-CTR) cells
T1 sequence (Q12778 whole entry): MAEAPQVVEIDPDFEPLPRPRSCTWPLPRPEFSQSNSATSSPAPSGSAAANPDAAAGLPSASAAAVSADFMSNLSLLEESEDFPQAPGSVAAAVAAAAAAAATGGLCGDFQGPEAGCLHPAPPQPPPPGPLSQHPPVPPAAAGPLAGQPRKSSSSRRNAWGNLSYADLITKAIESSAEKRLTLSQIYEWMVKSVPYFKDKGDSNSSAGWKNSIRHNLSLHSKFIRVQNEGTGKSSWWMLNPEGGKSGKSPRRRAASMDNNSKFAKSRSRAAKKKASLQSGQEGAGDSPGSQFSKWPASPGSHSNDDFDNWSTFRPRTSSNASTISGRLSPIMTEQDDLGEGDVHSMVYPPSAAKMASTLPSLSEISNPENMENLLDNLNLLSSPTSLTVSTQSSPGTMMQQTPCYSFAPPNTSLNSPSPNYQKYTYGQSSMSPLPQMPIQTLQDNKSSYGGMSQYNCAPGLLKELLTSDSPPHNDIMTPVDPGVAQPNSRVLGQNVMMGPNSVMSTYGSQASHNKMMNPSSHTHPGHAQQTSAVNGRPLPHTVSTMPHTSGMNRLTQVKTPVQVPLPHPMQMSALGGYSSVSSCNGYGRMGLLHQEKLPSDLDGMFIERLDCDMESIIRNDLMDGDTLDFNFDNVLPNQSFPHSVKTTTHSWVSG
Method: as §1

SMARCC1 = test: Abundance of SWI/SNF subunit SMARCC1 in soluble nuclear extracts; assay type: cell-based; settings: 1 μM, 24 hours
Method: as §1

SMARCB1 = test: Abundance of SWI/SNF subunit SMARCB1 in soluble nuclear extracts; assay type: cell-based; settings: 1 μM, 24 hours
Method: as §1

PBRM1 = biological target: T2, PBRM1 (Homo sapiens, UniProt Q86U86); test: Abundance of PBAF subunit PBRM1 in soluble nuclear extracts; assay type: cell-based; settings: 24 hours; for degradation of dedicated PBAF subunit PBRM1: 1 μM, soluble nuclear extracts
T2 construct: Soluble nuclear extracts were prepared to assess target degradation as well as abundance of additional SWI/SNF complex subunits; endogenous in cells; host or cells: RH4 (washout experiment) and other RMS cells
T2 sequence (Q86U86 whole entry): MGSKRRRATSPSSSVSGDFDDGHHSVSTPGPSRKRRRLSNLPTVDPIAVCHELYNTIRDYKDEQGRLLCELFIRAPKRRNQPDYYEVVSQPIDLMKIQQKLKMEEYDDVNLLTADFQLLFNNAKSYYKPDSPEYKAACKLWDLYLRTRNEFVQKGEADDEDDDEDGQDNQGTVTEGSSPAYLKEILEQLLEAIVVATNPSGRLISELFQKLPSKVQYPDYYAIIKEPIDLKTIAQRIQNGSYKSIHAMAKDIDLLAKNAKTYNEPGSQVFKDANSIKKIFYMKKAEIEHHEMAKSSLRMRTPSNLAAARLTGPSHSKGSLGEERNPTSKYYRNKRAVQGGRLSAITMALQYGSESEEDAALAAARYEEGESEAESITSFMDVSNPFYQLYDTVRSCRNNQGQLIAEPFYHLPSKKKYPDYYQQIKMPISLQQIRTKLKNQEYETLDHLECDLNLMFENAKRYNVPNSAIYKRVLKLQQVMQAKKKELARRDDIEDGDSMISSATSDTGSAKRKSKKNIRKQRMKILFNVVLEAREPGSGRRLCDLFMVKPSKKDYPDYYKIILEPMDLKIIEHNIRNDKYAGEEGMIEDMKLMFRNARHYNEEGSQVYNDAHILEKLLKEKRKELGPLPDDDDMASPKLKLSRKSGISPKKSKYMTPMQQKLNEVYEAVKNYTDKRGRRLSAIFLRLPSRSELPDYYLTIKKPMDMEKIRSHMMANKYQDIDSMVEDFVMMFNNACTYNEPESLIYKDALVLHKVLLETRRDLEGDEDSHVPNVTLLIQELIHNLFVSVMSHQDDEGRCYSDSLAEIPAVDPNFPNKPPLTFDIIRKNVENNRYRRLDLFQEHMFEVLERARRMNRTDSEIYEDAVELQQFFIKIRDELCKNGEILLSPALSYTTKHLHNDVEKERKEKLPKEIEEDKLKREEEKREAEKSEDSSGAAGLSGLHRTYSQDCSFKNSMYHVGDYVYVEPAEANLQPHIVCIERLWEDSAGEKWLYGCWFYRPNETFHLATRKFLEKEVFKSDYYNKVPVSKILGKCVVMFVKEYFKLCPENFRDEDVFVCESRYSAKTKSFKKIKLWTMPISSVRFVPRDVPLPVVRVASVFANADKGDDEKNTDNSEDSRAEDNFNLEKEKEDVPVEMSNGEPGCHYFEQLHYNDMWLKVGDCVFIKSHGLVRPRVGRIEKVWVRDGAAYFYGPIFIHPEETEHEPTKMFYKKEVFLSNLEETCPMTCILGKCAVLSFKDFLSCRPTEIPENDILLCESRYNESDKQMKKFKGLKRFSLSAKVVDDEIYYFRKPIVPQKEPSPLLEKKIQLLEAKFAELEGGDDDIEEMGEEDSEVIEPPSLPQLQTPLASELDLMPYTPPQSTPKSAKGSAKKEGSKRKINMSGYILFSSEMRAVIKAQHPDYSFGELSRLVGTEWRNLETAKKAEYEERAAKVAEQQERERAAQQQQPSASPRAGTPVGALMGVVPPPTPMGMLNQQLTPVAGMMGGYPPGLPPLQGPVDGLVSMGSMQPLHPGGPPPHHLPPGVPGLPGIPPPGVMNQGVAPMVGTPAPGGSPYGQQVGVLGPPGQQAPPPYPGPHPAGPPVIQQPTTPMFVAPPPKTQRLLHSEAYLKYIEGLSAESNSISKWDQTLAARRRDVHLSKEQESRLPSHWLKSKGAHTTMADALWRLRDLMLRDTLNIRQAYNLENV
Method: as §1, §2

DPF2 = test: Abundance of BAF subunit DPF2 in soluble nuclear extracts; assay type: cell-based; settings: 1 μM, 24 hours
Method: as §1

BRD9 = biological target: T3, BRD9 (Homo sapiens, UniProt Q9H8M2); test: Abundance of GBAF subunit BRD9 in soluble nuclear extracts; assay type: cell-based; settings: 1 μM, 24 hours
T3 construct: Soluble nuclear extracts were prepared to assess target degradation as well as abundance of additional SWI/SNF complex subunits; endogenous in cells; host or cells: RH4, RH30, RD, CTR rhabdomyosarcoma cells
T3 sequence (Q9H8M2 1-597): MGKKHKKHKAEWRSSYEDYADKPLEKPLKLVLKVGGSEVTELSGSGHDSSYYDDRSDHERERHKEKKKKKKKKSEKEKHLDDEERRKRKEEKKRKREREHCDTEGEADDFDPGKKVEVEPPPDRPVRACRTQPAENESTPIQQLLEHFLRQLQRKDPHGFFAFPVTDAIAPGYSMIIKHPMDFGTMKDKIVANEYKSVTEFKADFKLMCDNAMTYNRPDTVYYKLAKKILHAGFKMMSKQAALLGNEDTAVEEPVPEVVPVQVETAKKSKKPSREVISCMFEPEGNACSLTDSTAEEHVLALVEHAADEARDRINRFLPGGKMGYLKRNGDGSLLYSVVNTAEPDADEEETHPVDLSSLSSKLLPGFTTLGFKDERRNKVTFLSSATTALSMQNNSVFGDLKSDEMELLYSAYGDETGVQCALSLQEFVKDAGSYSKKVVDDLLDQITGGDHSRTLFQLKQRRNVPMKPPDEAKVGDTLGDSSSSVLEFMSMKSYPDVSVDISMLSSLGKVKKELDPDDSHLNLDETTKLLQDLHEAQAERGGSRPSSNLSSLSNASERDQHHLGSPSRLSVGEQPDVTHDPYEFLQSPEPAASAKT
Method: as §1

RH4 cells [1] = test: Incucyte cell proliferation, growth-curve AUC dose-response, RH4; assay type: cell-based, human; settings: RH4 (fusion-positive), 96-hour, AUC of growth curve, initial data, FIG. 7A
Method: (§5) In FIG. 7A, RH4 (a PAX3-FOXO1 fusion-positive rhabdomyosarcoma cell line) and SMS-CTR (a PAX3-FOXO1 fusion-negative rhabdomyosarcoma cell line) cells were treated with increasing concentrations of SMARCA4-31 or DL-dS2-4 for a 96-hour period, and cell proliferation was monitored on an Incucyte® system. […] We explored why RH4 and SMS-CTR cells display relatively high sensitivity to PROTAC treatment. The CRBN gene expresses the protein cereblon, a component of an E3 ubiquitin ligase complex. By analyzing CRBN gene expression using RNA-seq from the Cancer Cell Line Encyclopedia (CCLE) database, we show in FIG. 7B, that RH4 and SMS-CTR cells express high levels of CRBN compared to other rhabdomyosarcoma (RMS) cell lines.

SMS-CTR cells = test: Incucyte cell proliferation, growth-curve AUC dose-response, SMS-CTR; assay type: cell-based; settings: SMS-CTR (fusion-negative), 96-hour, AUC of growth curve, initial data, FIG. 7A
Method: as §5

MYOD1 = test: LC/MS of BAF-associated transcription factors in rhabdomyosarcoma cells: MYOD1; assay type: cell-based; settings: 1 μM, 24-hour treatment
Text: (§6) In addition to PAX3-FOXO1, depleted core-regulatory transcription factors included MYOD1, an essential factor in rhabdomyosarcoma cell growth.

PAX3-FOXO1 = biological target: T4, PAX3-FOXO1 (Homo sapiens, UniProt P23760); test: LC/MS of BAF-associated transcription factors in rhabdomyosarcoma cells: PAX3-FOXO1; assay type: cell-based; settings: 1 μM, 24-hour treatment
T4 construct: endogenous in cells
T4 sequence (P23760 with tags, fused parts or gaps limits assumed): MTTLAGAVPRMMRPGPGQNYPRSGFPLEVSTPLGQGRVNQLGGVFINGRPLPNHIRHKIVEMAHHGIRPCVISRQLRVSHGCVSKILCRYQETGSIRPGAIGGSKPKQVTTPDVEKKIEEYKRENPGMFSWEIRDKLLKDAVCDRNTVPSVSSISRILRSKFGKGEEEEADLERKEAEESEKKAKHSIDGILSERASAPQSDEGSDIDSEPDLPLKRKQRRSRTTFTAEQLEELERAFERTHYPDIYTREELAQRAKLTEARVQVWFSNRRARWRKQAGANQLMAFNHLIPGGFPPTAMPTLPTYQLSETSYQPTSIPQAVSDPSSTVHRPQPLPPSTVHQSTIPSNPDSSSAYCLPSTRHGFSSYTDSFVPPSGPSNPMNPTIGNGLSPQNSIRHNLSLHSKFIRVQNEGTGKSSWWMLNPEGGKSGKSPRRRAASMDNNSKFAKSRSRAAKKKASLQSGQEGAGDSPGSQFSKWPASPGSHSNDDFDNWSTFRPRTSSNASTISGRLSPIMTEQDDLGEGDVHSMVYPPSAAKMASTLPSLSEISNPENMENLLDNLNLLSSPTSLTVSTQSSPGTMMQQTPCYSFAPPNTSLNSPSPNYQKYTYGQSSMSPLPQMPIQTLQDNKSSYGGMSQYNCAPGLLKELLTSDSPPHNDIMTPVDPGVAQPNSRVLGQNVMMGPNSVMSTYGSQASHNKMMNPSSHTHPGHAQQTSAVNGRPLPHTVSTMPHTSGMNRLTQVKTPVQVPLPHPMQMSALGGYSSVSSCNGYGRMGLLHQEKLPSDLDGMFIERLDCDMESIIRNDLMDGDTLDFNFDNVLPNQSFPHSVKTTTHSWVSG
Text: as §6

RH4 cells [2] = test: Tn5 transposition library fragment length distribution (chromatin accessibility) in RH4 cells; assay type: cell-based, human; settings: 24 hours, with or without washout and 24-hour recovery, FIG. 5
Method: Finally, the inventors determined if the reversible disruption of the SWU/SNF complex results in altered chromatin accessibility. FP-RMS RH4 cells were treated for 24 hours with DMSO or SMARCA4-31. A third group was treated with SMARCA4-31 for 24 hours before washout, and a 24-hour recovery period. 50.000 cells were used. Tn5 transposition followed by Illumina library amplification (15 cycles). Libraries were run on Bioanalyzer to assess fragment length distribution.

With `O=C1CCC(N2C(=O)c3cccc(NCCCCNC(=O)c4cccc(C#Cc5cc(NC(=O)Nc6ccnc(Cl)c6)ccn5)c4)c3C2=O)C(=O)N1` (racemic) [DL-dS2-4] the “PROTAC exposure time until ATPase depletion is observed” value (SMARCA4 and SMARCA2; RH4 cells) was “approximately 20 hours”, the “dose required for maximal ATPase depletion” value (SMARCA4 and SMARCA2; RH4 cells, 24 hours) was 250 nM and the “loss of ATPases SMARCA4/SMARCA2” value (SMARCA4 and SMARCA2) was “concurrent loss”. The “loss of the PAX3-FOXO1 fusion” value (PAX3-FOXO1 fusion) was “loss of the PAX3-FOXO1 fusion; also recorded: concurrent loss”, the “PROTAC concentration at which PAX3-FOXO1 is fully depleted” value (PAX3-FOXO1 fusion) was 62.5 nM and the “loss of wild-type FOXO1” value (FOXO1) was “FOXO1 loss; also recorded: concurrent loss”. For the same molecule, the “degradation of core SWI/SNF subunit SMARCC1” value (SMARCC1) was “degraded”, the “abundance of core subunit SMARCB1” value (SMARCB1) was “remained intact” and the “degradation of dedicated PBAF subunit PBRM1” value (PBRM1) was “specific degradation”. The “abundance of BAF subunit DPF2” value (DPF2) was “remained intact”, the “abundance of GBAF subunit BRD9” value (BRD9) was “remained intact” and the “efficacy in inhibiting cell growth (concentration range)” value (“efficacy in inhibiting cell growth” for short) (RH4 cells [1]) was “sub-micromolar efficacy”. The “efficacy in inhibiting cell growth” value (SMS-CTR cells) was “sub-micromolar efficacy”.

`O=C1CCC(N2C(=O)c3ccc(NCCCCCCCCOCCc4cccc(N5C[C@H]6C[C@@H]5CN6/C=C/C(=O)c5ccccc5O)c4)cc3C2=O)C(=O)N1` (some centres unmarked) [SMARCA4-31] was tested, and the “PROTAC exposure time until ATPase depletion is observed” value (SMARCA4 and SMARCA2; RH4 cells) was “approximately 20 hours”, the “extent of SMARCA4 degradation, reversibility experiment” value (SMARCA4 and SMARCA2; RH4 cells, 24 hours, 1 µM, FIG. 4) was “More complete degradation” and the “dose required for maximal ATPase depletion” value (SMARCA4 and SMARCA2; RH4 cells, 24 hours) was 125 nM. For the same molecule, the “loss of ATPases SMARCA4/SMARCA2” value (SMARCA4 and SMARCA2) was “concurrent loss”, the “loss of the PAX3-FOXO1 fusion” value (PAX3-FOXO1 fusion) was “loss of the PAX3-FOXO1 fusion; also recorded: concurrent loss” and the “extent of PAX3-FOXO1 degradation, reversibility experiment” value (PAX3-FOXO1 fusion; 1 µM, FIG. 4) was “More complete degradation”. The “PROTAC concentration at which PAX3-FOXO1 is fully depleted” value (PAX3-FOXO1 fusion) was 62.5 nM, the “loss of wild-type FOXO1” value (FOXO1) was “FOXO1 loss; also recorded: concurrent loss” and the “degradation of core SWI/SNF subunit SMARCC1” value (SMARCC1) was “degraded”. For the same molecule, the “abundance of core subunit SMARCB1” value (SMARCB1) was “remained intact”, the “degradation of dedicated PBAF subunit PBRM1” value (PBRM1) was “specific degradation” and the “extent of PBRM1 degradation, reversibility experiment” value (PBRM1; RH4 cells, 1 µM, FIG. 4) was “More complete degradation”. The “abundance of BAF subunit DPF2” value (DPF2) was “remained intact”, the “abundance of GBAF subunit BRD9” value (BRD9) was “remained intact” and the “MYOD1 depletion by LC/MS” value (MYOD1) was “depleted”. The “PAX3-FOXO1 depletion by LC/MS” value (PAX3-FOXO1) was “depleted”, the “efficacy in inhibiting cell growth” value (RH4 cells [1]) was “sub-micromolar efficacy” and the “efficacy in inhibiting cell growth” value (SMS-CTR cells) was “sub-micromolar efficacy”. The “chromatin accessibility (fragment length signatures)” value (RH4 cells [2]) was “alterations to the accessibility landscape”.
